# From patent US20120190754A1, “ANTIMICROBIAL COMPOSITION CONTAINING PARACHLORMETAXYLENOL” (Sentinel Products Corp., priority 2009, published 2012)
# System: bacteria or mold
# Assay: retention of antimicrobial activity on a substrate
# Conditions: no test method described
compound,measurement,value
"Cc1cc(O)cc(C)c1Cl [PCMX, 4-chloro-3,5-dimethyl phenol]",duration of antimicrobial effect on a substrate,hours
